Data: article PMC8151276, “An Integrated Approach toward NanoBRET Tracers for Analysis of GPCR Ligand Engagement” (Molecules, 2021)

What was measured:
[1] = biological target: T1, MTNR1A (Homo sapiens, UniProt P48039); test: NanoBRET screen HiBiT-MTNR1A in HEK293; type: binding
T1 construct: purchased Promega (in-house HiBiT-GPCR construct library, NanoBRET)
Method: (§1) Each tracer candidate was screened across the entire library of HiBiT-GPCR constructs using NanoBRET as the detection modality. As depicted in Figure 4A, the specificity of interactions was evaluated through decrease in BRET due to competitive displacement of a bound tracer by excess parental compound. Each tracer was analyzed for binding to each HiBiT-GPCR fusion in the absence and in the presence of competing parental compound. Briefly, HEK293 cells were transfected with HiBiT-GPCR constructs diluted into promoterless DNA to reduce expression and maximize translocation to the cell surface. Each tracer candidate was then screened at concentrations of 1 μM and 0.1 μM across cells expressing these fusions. Cells were treated for 1.5 h with tracer either alone or in the presence of 20 μM competing parental compound (i.e., control). BRET was measured upon addition of purified LgBiT and subsequent complementation with HiBiT genetically fused to a GPCR. The specificity of interactions was assessed through a decrease in BRET signal due to competitive displacement of the bound tracer. To further gauge the robustness of these interactions, the fold response over the control (i.e., BRETtracer/BRETcontrol) was calculated. We chose a 1.5-fold response, which translates to ≥7-fold signal over noise as the minimal threshold required to score an interaction as positive.
(§2) HiBiT-GPCR DNA constructs were diluted in 10 mM Tris pH 8 to a final concentration of 0.01 μg/μL, arrayed in 96-well plates and stored at −20 °C. For transfection, HEK293 cells were suspended in Opti-MEM (without phenol red) supplemented with 2% fetal bovine serum (Seradigm) and 100 units/mL penicillin–streptomycin (Gibco) at a final concentration of 220,000 cells/mL and dispensed into white 96-well plates at 90 μL/well. Subsequent transfections and screens were carried using an Agilent Bravo Automated Liquid Handling Platform. First, the 96-well HiBiT DNA arrays were diluted 25-fold in Opti-MEM (without serum or phenol red) to a final concentration of 0.0004 μg/μL and 20 μL of the diluted DNAs were transferred into new 96-well plates. Next, promoterless carrier DNA (1 μg/μL) was diluted 25-fold (0.04 μg/μL) and then dispensed into the diluted arrays at 20 μL/well. Following brief mixing, Viafect transfection reagent (Promega) diluted 16-fold into Opti-MEM was dispensed into the plates at 40 μL/well. After mixing by pipetting, plates were incubated for 10 min on the pipetting station deck. The DNA-transfection reagent complexes were then added to plates containing cells. To facilitate the screen, 10 μL of DNA-transfection reagent complexes were added in duplicates to the top 4 and bottom 4 rows, resulting in two identical 48-well arrays per plate. Plates with transfected cells were incubated for 18–20 h at 37 °C/5% CO2. A screen of each tracer across the entire library using two different concentrations requires duplicate plates of transfected cells. Depending on the number of tracers being screened, transfections can be scaled up using the same ratios. The next day, for each tracer, four 20× screening solutions in tracer dilution buffer (Promega) were prepared: two duplicates at final concentration of 20 μM and two duplicates at a final concentration of 2 μM. […] The four resulting solutions were diluted 4-fold in Opti-MEM without serum or phenol red to generate 5× solutions (5 µM and 0.5 µM tracer +/− 100 μM competing compound). To screen the library, a BioTek MultiFlo FX liquid dispenser was used to dispense 22.5 µL of tracer solution to the top 4 rows and 22.5 µL tracer + competing compound solution to the 4 bottom rows. Plates were briefly mixed on an orbital shaker and incubated for 1.5 h at room temperature. […] Plates were briefly mixed on an orbital shaker and incubated for 15 min to allow complementation.

[2] = biological target: T2, NPY4R (Homo sapiens, UniProt P50391); test: NanoBRET screen HiBiT-NPY4R in HEK293; type: binding
T2 construct: purchased Promega (in-house HiBiT-GPCR construct library, NanoBRET)
Method: as §1, §2

T1 sequence (P48039 whole entry): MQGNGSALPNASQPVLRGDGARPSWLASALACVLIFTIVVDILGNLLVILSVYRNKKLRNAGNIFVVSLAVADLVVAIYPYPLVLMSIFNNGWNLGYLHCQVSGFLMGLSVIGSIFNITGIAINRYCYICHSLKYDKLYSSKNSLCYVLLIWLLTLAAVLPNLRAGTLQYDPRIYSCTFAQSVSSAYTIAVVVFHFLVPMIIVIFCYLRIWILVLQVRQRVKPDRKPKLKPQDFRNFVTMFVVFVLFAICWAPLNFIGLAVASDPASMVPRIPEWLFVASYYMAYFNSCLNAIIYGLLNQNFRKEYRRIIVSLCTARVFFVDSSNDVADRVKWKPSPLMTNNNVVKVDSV
T2 sequence (P50391 whole entry): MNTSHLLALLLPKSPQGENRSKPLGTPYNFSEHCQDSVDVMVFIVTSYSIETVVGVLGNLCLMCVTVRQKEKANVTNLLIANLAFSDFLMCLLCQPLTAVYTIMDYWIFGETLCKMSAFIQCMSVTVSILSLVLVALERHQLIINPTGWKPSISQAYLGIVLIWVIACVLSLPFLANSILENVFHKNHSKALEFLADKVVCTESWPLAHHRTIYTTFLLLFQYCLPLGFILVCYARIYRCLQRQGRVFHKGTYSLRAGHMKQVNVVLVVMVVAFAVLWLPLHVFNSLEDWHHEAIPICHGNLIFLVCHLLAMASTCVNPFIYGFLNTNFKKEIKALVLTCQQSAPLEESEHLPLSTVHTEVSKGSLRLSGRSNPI

Row | SMILES | NanoBRET Fold Response ([1]; MTNR1A, tracer 0.1μM) | NanoBRET Fold Response ([1]; MTNR1A, tracer 1μM) | NanoBRET Fold Response ([2]; NPY4R, tracer 0.1μM) | NanoBRET Fold Response ([2]; NPY4R, tracer 1μM) | further results
1 | COc1ccc2c(n1)c(CCNC(C)=O)cn2CCNC(=O)CCc1ccc2n1[B-](F)(F)[N+]1=C(c3ccc[nH]3)C=CC1=C2 [Azamelatonin-1-NB590] | – | – | – | – | NanoBRET Fold Response ([1]; 0.1μM tracer): 1.12; NanoBRET Fold Response ([1]; 1μM tracer): 1.55; NanoBRET Fold Response ([2]; 0.1μM tracer): 1.11; NanoBRET Fold Response ([2]; 1μM tracer): 1.08
2 | CC(C)N(CC[C@H](c1ccccc1)c1cc(CCNC(=O)c2ccc(CNC(=O)CCc3ccc4n3[B-](F)(F)[N+]3=C(c5ccc[nH]5)C=CC3=C4)cc2)ccc1O)C(C)C [Tolterodine-BZ-NB590] | 0.97 | 1.03 | 0.88 | 0.98 | –
3 | O=C(CCc1ccc2n1[B-](F)(F)[N+]1=C(c3ccc[nH]3)C=CC1=C2)NCCOCCOCCNC(=O)OCCOCCN1CCN(C2=Nc3ccccc3Sc3ccccc32)CC1 [Quetiapine-a-2-NB590] | 1.00 | 1.05 | 1.06 | 0.73 | –
4 | Cc1cc2c(s1)Nc1ccccc1N=C2N1CCN(CCCNC(=O)CCOCCOCCOCCOCCNC(=O)CCc2ccc3n2[B-](F)(F)[N+]2=C(c4ccc[nH]4)C=CC2=C3)CC1 [Olanzapine-a-2-NB590] | 1.01 | 1.07 | 1.01 | 0.91 | –
5 | O=C(CCc1ccc2n1[B-](F)(F)[N+]1=C(c3ccc[nH]3)C=CC1=C2)NCc1ccc(C(=O)NCCOCCOCCNCC(O)COc2cccc3ccccc23)cc1 (stereo not shown) [Propranolol-3-NB590] | – | – | – | – | NanoBRET Fold Response ([1]; MTNR1A, 0.1μM): 0.98; NanoBRET Fold Response ([1]; MTNR1A, 1μM): 0.94; NanoBRET Fold Response ([2]; NPY4R, 0.1μM): 0.98; NanoBRET Fold Response ([2]; NPY4R, 1μM): 0.99
6 | CN1CCN(C2=Nc3cc(Cl)ccc3N(CC(=O)NCCOCCOCCOCCOCCNC(=O)CCc3ccc4n3[B-](F)(F)[N+]3=C(c5ccc[nH]5)C=CC3=C4)c3ccccc32)CC1 [Clozapine-c-2-NB590] | – | – | – | – | NanoBRET Fold Response ([1]; MTNR1A, 0.1μM tracer): 0.97; NanoBRET Fold Response ([1]; MTNR1A, 1μM tracer): 1.07
7 | O=C(CCc1ccc2n1[B-](F)(F)[N+]1=C(c3ccc[nH]3)C=CC1=C2)NCc1ccc(C(=O)NCCOCCC(=O)N[C@@H]2CC[C@@]3(O)[C@H]4Cc5ccc(O)c6c5[C@@]3(CCN4CC3CC3)[C@H]2O6)cc1 [Naltrexone-3-NB590] | 0.76 | 1.18 | 1.04 | 0.91 | –
8 | CC(C)N(CC[C@H](c1ccccc1)c1cc(CCNC(=O)CCOCCOCCOCCOCCNC(=O)CCc2ccc3n2[B-](F)(F)[N+]2=C(c4ccc[nH]4)C=CC2=C3)ccc1O)C(C)C [Tolterodine-2-NB590] | 1.07 | 0.79 | 0.86 | 1.09 | –
9 | Cc1nc2n(c(=O)c1CCN1CCC(c3noc4cc(F)ccc34)CC1)CCCC2OC(=O)NCCOCCOCCOCCOCCNC(=O)CCc1ccc2n1[B-](F)(F)[N+]1=C(c3ccc[nH]3)C=CC1=C2 (stereo not shown) [Risperidone-2-NB590] | 0.97 | 0.93 | 0.95 | 1.02 | –
10 | O=C(CCOCCOCCOCCOCCNC(=O)CCc1ccc2n1[B-](F)(F)[N+]1=C(c3ccc[nH]3)C=CC1=C2)NCCCN1CCN(C2=Nc3cc(Cl)ccc3Nc3ccccc32)CC1 [Clozapine-a-2-NB590] | – | – | – | – | NanoBRET Fold Response ([1]; MTNR1A, 0.1μM tracer): 1.03; NanoBRET Fold Response ([1]; MTNR1A, 1μM tracer): 1.00; NanoBRET Fold Response ([2]; NPY4R, 0.1μM tracer): 0.88; NanoBRET Fold Response ([2]; NPY4R, 1μM tracer): 1.40
11 | COc1ccc2[nH]c(-c3ccc(CNC(=O)CCOCCOCCOCCOCCNC(=O)CCc4ccc5n4[B-](F)(F)[N+]4=C(c6ccc[nH]6)C=CC4=C5)cc3)c(CCNC(C)=O)c2n1 [AzomelatoninICO9-2-NB590] | – | – | – | – | NanoBRET Fold Response ([1]; 0.1μM tracer): 1.06; NanoBRET Fold Response ([1]; 1μM tracer): 1.42; NanoBRET Fold Response ([2]; 0.1μM tracer): 1.11; NanoBRET Fold Response ([2]; 1μM tracer): 0.94
12 | CN1CCN(C2=Nc3cc(Cl)ccc3Nc3ccc(CNC(=O)CCOCCOCCOCCOCCNC(=O)CCc4ccc5n4[B-](F)(F)[N+]4=C(c6ccc[nH]6)C=CC4=C5)cc32)CC1 [Clozapine-b-2-NB590] | – | – | – | – | NanoBRET Fold Response ([1]; MTNR1A, 1μM tracer): 1.02; NanoBRET Fold Response ([2]; NPY4R, 0.1μM tracer): 1.02; NanoBRET Fold Response ([2]; NPY4R, 1μM tracer): 1.08
13 | COc1ccccc1N1CCN(CCCCN2C(=O)c3ccc(CNC(=O)CCOCCNC(=O)c4ccc(CNC(=O)CCc5ccc6n5[B-](F)(F)[N+]5=C(c7ccc[nH]7)C=CC5=C6)cc4)cc3C2=O)CC1 [NAN-190-3-NB590] | 1.01 | 0.80 | 1.06 | 0.95 | –
14 | N#CN=C(NCCCOc1cccc(CN2CCCCC2)c1)NCCNC(=O)CCOCCOCCOCCOCCNC(=O)CCc1ccc2n1[B-](F)(F)[N+]1=C(c3ccc[nH]3)C=CC1=C2 [Aminopotentidine-2-NB590] | 1.00 | 1.00 | 1.01 | 0.98 | –
15 | CN(C)CCC=C1c2ccccc2CCc2ccc(C(=O)NCCNC(=O)CCOCCOCCOCCOCCNC(=O)CCc3ccc4n3[B-](F)(F)[N+]3=C(c5ccc[nH]5)C=CC3=C4)cc21 [Amitriptyline-b-2-NB590] | 0.96 | 0.98 | – | – | NanoBRET Fold Response ([2]; tracer at 1μM, listed as amitriptyline-b-2-NB590): 1.03
16 | COc1ccccc1N1CCN(CCCCN2C(=O)c3ccc(CNC(=O)CCOCCOCCOCCOCCNC(=O)CCc4ccc5n4[B-](F)(F)[N+]4=C(c6ccc[nH]6)C=CC4=C5)cc3C2=O)CC1 [NAN-190-2-NB590] | 0.99 | 0.97 | 0.95 | 1.04 | –
17 | O=C(CCOCCOCCOCCOCCNC(=O)CCc1ccc2n1[B-](F)(F)[N+]1=C(c3ccc[nH]3)C=CC1=C2)NCCCN1CCN(C2=Nc3ccccc3Oc3ccc(Cl)cc32)CC1 [Loxapine-a-2-NB590] | 0.92 | 1.12 | 0.99 | 1.10 | –
18 | CCCn1c(=O)c2[nH]c(-c3ccc(OCC(=O)NCCNC(=O)CCOCCNC(=O)c4ccc(CNC(=O)CCc5ccc6n5[B-](F)(F)[N+]5=C(c7ccc[nH]7)C=CC5=C6)cc4)cc3)nc2n(CCC)c1=O [XAC-3-NB590] | 1.02 | 1.01 | 0.97 | 0.86 | –
19 | CN(C)CCC=C1c2ccccc2CCc2ccc(C(=O)NCCNC(=O)CCOCCOCCOCCOCCNC(=O)CCc3ccc4n3[B-](F)(F)[N+]3=C(c5ccc[nH]5)C=CC3=C4)cc21 [Amitriptyline-a-2-NB590] | – | – | – | – | NanoBRET Fold Response ([2]; tracer at 0.1μM): 1.11; NanoBRET Fold Response ([2]; tracer at 1μM): 0.96
